The text below walks through data of patent US20230227466A1, “SUBSTITUTED THIENOPYRIMIDINES THAT INTERACT WITH THE RAS SUPERFAMILY FOR THE TREATMENT OF CANCERS, INFLAMMATORY DISEASES, RASOPATHIES, AND FIBROTIC DISEASE” (SHY Therapeutics, LLC, priority 2020, published 2023).

One assay deals with T1, KRas G12C mutant (Homo sapiens, UniProt P01116, G12C).
T1 construct: made in house
Kind of assay: Ras GTP binding domain inhibition assay (labeled-GTP competition, cell-free). The text has this: (§1) This is a competitive binding assay. It involves the immobilization of a protein on solid phase, interaction with a small molecule drug candidate, and then competitive binding with a labeled native GTP or GDP ligand.
(§2) In theory, the assay is suitable for use with any GTP or GDP binding protein.
(§3) The following method was developed as specific assay for the following proteins: KRas wild type, KRas Q61H mutant, KRas G12C mutant, KRas G12D mutant, Rac-1, and Rho-A.
(§4) The small GTPases proteins: KRas wild type. KRas Q61H mutant, KRas G12C mutant, KRas G12D mutants, Rac-1, and Rho-A were expressed as His-tagged proteins. In addition, the Guanosine nucleotide Exchange Factor (GEF) Sos protein (residues 556-1049) was expressed as a His-tagged protein. In cells, the guanine nucleotide exchange factor Sos protein promotes activation of Ras proteins by stimulating an exchange of GDP for GTP. The inclusion of Sos to the Ras GTP binding domain inhibition assay may be considered as an alternative representation of physiological cellular conditions for evaluating the inhibitory activity of some of the tested small molecules.
(§5) For the assay, all purified small GTPases proteins were diluted in Buffer-I or Buffer-II to a final concentration of 10-30 μg/mL. 200 μL of each diluted protein was added to a nickel-coated 96-well plate and incubated overnight at 4° C. Then the protein solution was discarded and 200 μL of Buffer-I or Buffer-II was added to each well in the presence of 1% DMSO. Compounds to be tested were added to the protein-coated wells at final concentration of 20 μM, and incubated for 3 hours at room temperature with and without 10-30 μg/mL of Sos added to the final hour of the incubation. When performing IC50 measurements a serial dilution of all tested concentrations was added. Then Cy3-GTP or Cy5-GTP was added to each well to a final concentration of 100 nM. The labeled GTP was incubated for 45 minutes at room temperature. Following GTP incubation, wells were washed 3× in Buffer-I or Buffer-II and 200 μL of Buffer-I or Buffer-II was added to each well. Following washes, the amount of bound labeled-GTP was measured using a SpectraMax M3 (Molecular Devices).

For a further assay, the target named is T2, KRas Q61H mutant (Homo sapiens, UniProt P01116, Q61H).
T2 construct: made in house
The description is as above. Particulars: at 20 μM.
Excerpt: as §1, §2, §3, §4, §5

Assay [1] has as its system Akt phosphorylation in Panc-1 cells. Kind of assay: Western AKT cell-based phosphorylation assay. Also on record: species or system human. To be noted: at 10 μM, values in brackets < > are activation %, not inhibition. The protocol:
Human Tumor-Derived Pancreatic Cancer Cell Line Panc-1 was Purchased from
American Type Culture Collection and grown in complete DMEM-High Glucose supplemented with penicillin (100 U/mL), streptomycin (100 μg/mL), and 10% heat-inactivated FBS at 37° C. in a humidified incubator with 5% CO2.
Method: Cells were plated at 350000 cells/well density in a 12-well plate, allowed 3 hours to adhere to the plate, then starved in the appropriate medium in the presence of 0.5% FBS overnight. The small molecules to be tested were added to the cells in the final concentration of 10 μM in the presence of 0.3% DMSO for 6 hours incubation at 37° C. Next, cells were stimulated with 1.5 ng/ml EGF for 15 minutes then cells were lysed with lysis buffer containing 1% Triton X-100, EDTA, and Halt™ Protease & Phosphatase Inhibitor Cocktail (Thermo Scientific). Protein concentration was assessed by BCA protein assay (Thermo Scientific). Phosphorylation level of Akt was determined by western blot.
Western blot protocol: Equal amounts of protein (15-50 μg) were separated by SDS-PAGE and transferred to nitrocellulose membranes (Invitrogen by Thermo Fisher Scientific). The membrane was stained with Ponceau S Stain (Boston BioProducts) to verify uniform protein loading. Membranes were blocked with 10% milk and phosphorylation levels of Akt were assessed by incubating overnight at 4° C. with anti-phospho-Akt (Ser473) antibody (Cell Signaling) followed by HRP-conjugated secondary antibody (Jackson Immunoresearch, West Grove, Pa.). Bands were incubated in Amersham ECL Prime Western Blotting Detection Reagent (GE Healthcare) and visualized using the ChemiDoc MP imaging system (Bio-Rad).

The next assay concerns the target KRas wild type (Homo sapiens, UniProt P01116). Kind of assay: Ras GTP binding domain inhibition assay (labeled-GTP competition, cell-free). Also on record: made in house.
Excerpt: as §1, §2, §3, §4, §5

For the next assay, the target named is Rho-A (Homo sapiens, UniProt P61586). The assay is described as above. Also on record: made in house. Particulars: without SOS, read-out: Rho-A: % inh.
Excerpt: as §1, §2, §3, §4, §5

A further assay has as its target Rac-1 (Homo sapiens, UniProt P63000). The assay is described as above. Also on record: made in house. Particulars: without SOS, read-out: Rac-1: % inh.
Excerpt: as §1, §2, §3, §4, §5

[2] abbreviates: with SOS, read-out: KRas G12C mutant + SOS: % inh.
[3] abbreviates: without SOS, read-out: KRas G12C mutant: % inh.
Setting [4] is: with SOS, read-out: KRas Q61H mutant + SOS: % inh.
Where [5] appears, read: without SOS, read-out: KRas Q61H mutant: % inh.
Setting [6] is: with SOS, read-out: KRas wild type + SOS: % inh.
Setting [7] is: without SOS, read-out: KRas wild type: % inh.

Read-outs that look alike come from different tables or passages of the source.

`CO[C@@H]1CC[C@H]1CNc1nc(-c2nccn2C)nc2sc(-c3ccn(C(C)C)n3)c(C)c12` (racemic) [Compound 61, rac-6-(1-Isopropyl-1H-pyrazol-3-yl)-N-(((1S,2R)-2-methoxycyclobutyl)methyl)-5-methyl-2-(1-methyl-1H-imidazol-2-yl)thieno[2,3-d]pyrimidin-4-amine]: the inhibition at 20 µM at KRas G12C mutant (setting [2]) was 76 to 100%; on KRas G12C mutant (setting [3]) it was 51 to 75%; at KRas Q61H mutant (setting [4]) it was 76 to 100%; on KRas Q61H mutant (setting [5]), 76 to 100%; at KRas wild type (setting [6]), 76 to 100%; on KRas wild type (setting [7]) it was 76 to 100%. For the same compound, the inhibition at 20 µM fell in the range of 51 to 75% on Rho-A and 26 to 50% on Rac-1. In addition, the “% inh of AKT phosphorylation in PANC-1” value in assay [1] is on record as 0 (0% inhibition).

As to `CO[C@H]1CC[C@@H](Nc2nc(-c3nccn3C)nc3sc(-c4ccn(C(C)C)n4)c(C(F)(F)F)c23)C1` (racemic) [Compound 73, Rac-6-(1-isopropyl-1H-pyrazol-3-yl)-N-((1R,3S)-3-methoxycyclopentyl)-2-(1-methyl-1H-imidazol-2-yl)-5-(trifluoromethyl)thieno[2,3-d]pyrimidin-4-amine], the inhibition at 20 µM is 76 to 100% at KRas G12C mutant (setting [2]); 1 to 25% at KRas G12C mutant (setting [3]); 51 to 75% at KRas Q61H mutant (setting [4]); 51 to 75% on KRas Q61H mutant (setting [5]); 76 to 100% on KRas wild type (setting [6]); 1 to 25% at KRas wild type (setting [7]). Also, the values for the inhibition at 20 µM at Rho-A and on Rac-1 were 51 to 75% and 1 to 25%, respectively. Besides, the “% inh of AKT phosphorylation in PANC-1” value in assay [1] was “A (1-25% inhibition)”.

`COCC1CCN(c2nc(-c3nccn3C)nc3sc(-c4ccn(C(C)C)n4)c(C(F)(F)F)c23)C1` (racemic) [Compound 74, Rac-6-(1-Isopropyl-1H-pyrazol-3-yl)-4-(3-(methoxymethyl)pyrrolidin-1-yl)-2-(1-methyl-1H-imidazol-2-yl)-5-(trifluoromethyl)thieno[2,3-d]pyrimidine]: the inhibition at 20 µM at KRas G12C mutant (setting [2]) was in the range of 51 to 75%; at KRas G12C mutant (setting [3]), 1 to 25%; at KRas Q61H mutant (setting [4]) it was 51 to 75%; at KRas Q61H mutant (setting [5]), 51 to 75%; at KRas wild type (setting [6]), 76 to 100%; on KRas wild type (setting [7]) it was 26 to 50%. The values for the inhibition at 20 µM at Rho-A and at Rac-1 were 51 to 75% and 1 to 25%, respectively. Also, in assay [1], the “% inh of AKT phosphorylation in PANC-1” value is 0 (0% inhibition).

Turning to `COC1CCCN(c2nc(-c3nccn3C)nc3sc(-c4ccn(C(C)C)n4)c(C(F)(F)F)c23)C1` (racemic) [Compound 75, Rac-6-(1-Isopropyl-1H-pyrazol-3-yl)-4-(3-methoxypiperidin-1-yl)-2-(1-methyl-1H-imidazol-2-yl)-5-(trifluoromethyl)thieno[2,3-d]pyrimidine], the inhibition at 20 µM on KRas G12C mutant (setting [2]) was 51 to 75%; at KRas G12C mutant (setting [3]) it was 26 to 50%; at KRas Q61H mutant (setting [4]), 26 to 50%; at KRas Q61H mutant (setting [5]), 51 to 75%; on KRas wild type (setting [6]), 51 to 75%; at KRas wild type (setting [7]) it was 26 to 50%. In addition, the inhibition at 20 µM on Rho-A lay in the range of 51 to 75%; on Rac-1 it was 1 to 25%. In addition, in assay [1], the “% inh of AKT phosphorylation in PANC-1” value was 0 (0% inhibition).

Regarding `Cc1c(-c2ccn(C(C)C)n2)sc2nc(-c3nccn3C)nc(NCc3c[nH]cn3)c12` [Compound 59, N-((1H-Imidazol-4-yl)methyl)-6-(1-isopropyl-1H-pyrazol-3-yl)-5-methyl-2-(1-methyl-1H-imidazol-2-yl)thieno[2,3-d]pyrimidin-4-amine], the inhibition at 20 µM at KRas G12C mutant (setting [2]) lay in the range of 76 to 100%; at KRas G12C mutant (setting [3]), 51 to 75%; on KRas Q61H mutant (setting [4]), 76 to 100%; at KRas Q61H mutant (setting [5]) it was 51 to 75%; on KRas wild type (setting [6]), 76 to 100%; at KRas wild type (setting [7]), 26 to 50%. Moreover, the inhibition at 20 µM at Rho-A and on Rac-1 was 51 to 75% throughout. In assay [1], the “% inh of AKT phosphorylation in PANC-1” value was 0 (0% inhibition).
